Values of other authors as cited in US20070281007A1, “Mucoadhesive Oral Formulations of High Permeability, High Solubility Drugs” (priority 2004, published 2007).
Read-outs that look alike come from different tables or passages of the source.

For NCC1(CC(=O)O)CCCCC1 [gabapentin], the bioavailability (at best, 900 mg dose, given three times a day) is given as 60%.
For CC(C)[C@H](N)C(=O)OCCOCn1cnc2c(=O)[nH]c(N)nc21 [valacyclovir], the bioavailability (in vivo) is given as roughly 50%.
